Results as given in article PMC7582324, “Potential Anti-Acetylcholinesterase Activity of Cassia timorensis DC” (Molecules, 2020).
Values after ≈ are worked out from the molar mass of the structure shown. “Also recorded” adds a separate entry of the source. Where two headings read alike, the source gives them in different places.

What was measured:
[1] = target: Acetylcholinesterase (AChE) from Electrophorus electricus (electrical eels) type VI-S (Electrophorus electricus, UniProt O42275); experiment: biochemical; format: biochemical; conditions: for inhibition at 100 µg/mL: read-out: AChE inhibition (%)
Sequence of Acetylcholinesterase (AChE) from Electrophorus electricus (electrical eels) type VI-S (O42275 24-633): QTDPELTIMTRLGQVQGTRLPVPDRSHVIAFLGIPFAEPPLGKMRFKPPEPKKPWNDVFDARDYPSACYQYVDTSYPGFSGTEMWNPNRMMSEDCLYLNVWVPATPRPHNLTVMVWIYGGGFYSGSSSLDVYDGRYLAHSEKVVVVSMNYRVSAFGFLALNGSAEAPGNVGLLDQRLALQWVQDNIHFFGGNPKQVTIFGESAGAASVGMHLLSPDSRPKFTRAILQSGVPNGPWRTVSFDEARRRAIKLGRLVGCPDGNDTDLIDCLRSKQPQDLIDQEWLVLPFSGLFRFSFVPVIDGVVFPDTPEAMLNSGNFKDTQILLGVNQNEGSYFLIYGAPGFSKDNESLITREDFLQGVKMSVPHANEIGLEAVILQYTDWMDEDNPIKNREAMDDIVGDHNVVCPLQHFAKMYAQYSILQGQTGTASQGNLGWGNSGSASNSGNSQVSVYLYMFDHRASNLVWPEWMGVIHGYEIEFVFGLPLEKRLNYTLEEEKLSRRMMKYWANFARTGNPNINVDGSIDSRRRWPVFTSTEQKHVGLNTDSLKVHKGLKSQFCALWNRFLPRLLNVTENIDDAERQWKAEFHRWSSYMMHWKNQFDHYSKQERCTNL
Procedure: Coloring agent 5-5′dithiobis [2-nitrobenzoicacid] (DTNB) was purchased from ACROS (Geel, Belgium). Silica gel (Kieselgel 60, 230–400 mesh atm) was purchased from Merck (Darmstadt, Germany). The solvents were of analytical grade and used as received.
The in vitro AChE inhibition assay was evaluated using a spectrophotometry method developed by Ellman with some modifications. […] Plant extracts were dissolved in dimethyl sulfoxide (DMSO) and tested at a final concentration of 0.2 mg/mL, while compounds were tested at 0.1 mg/mL. The final concentration of DMSO was fixed at 1% in the 96-well plate. In a 96-well plate, 178 µL of 50 mM phosphate buffer, 2 µL of […] compound and 20 mg/mL extract, and 10 µL of 0.5 U/mL AChE were added. The first incubation period was 15 min at 25 °C. Five microliters of 14 mM ATCI substrate and 10 mM of the color indicator, DTNB, were added equally into each well and the well was then incubated at 25 °C for 30 min to initiate the enzyme reaction. The absorbance was measured at 415 nm using Promega Glomax® Multi Plus Reader (Promega, Madison, WI, USA). […] The percentage of inhibition was calculated using formula (1):(1) Percentage Inhibition (%) = Absorbance of negative control − Absorbance of test sample/ Absorbance of negative control × 100
IC50 values of plant crude extract, fractions, and compounds were calculated from the graph of percentage of inhibition versus extract concentrations using Microsoft Excel. GraphPad Prism software was used to generate the graphs.

[2] = cited from earlier work
[3] = tested on: AChE; conditions: individual compounds; cited from earlier work
[4] = isolated compounds at 0.1 mg/mL

| Compound | BBB permeability [2] | inhibition at 100 µg/mL [1] [%] | also measured |
| --- | --- | --- | --- |
| COc1c(-c2ccc(O)c(O)c2)oc2cc(O)cc(O)c2c1=O [Compound 1, 3-methoxyquercetin] |  |  | AChE activity relative to quercetin [1]: approximately three times higher than quercetin; AChE inhibitory activity (in words) [1, 4]: moderate inhibition; IC50 ([1]; mean ± s.d. (n = 3), read-out: AChE Inhibition (IC50)): 83.7 ± 4.67 µM |
| COc1cc(-c2cc(=O)c3c(O)c(OC)c(O)c(OC)c3o2)ccc1O [sudachitin] | high BBB permeability |  |  |
| COc1ccc(-c2cc(=O)c3c(O)c(OC)c(O)c(OC)c3o2)cc1 [nevadensin] | high BBB permeability |  |  |
| CCCCCCCCCCCCCCCCCCO [Compound 6, 1-octadecanol] |  | < 50 | AChE inhibitory activity (in words) [1, 4]: weak inhibitory activity; also recorded: not active |
| aceronin | high BBB permeability |  |  |
| CC[C@H](CC[C@@H](C)[C@H]1CC[C@H]2[C@@H]3CC=C4C[C@@H](O)CC[C@]4(C)[C@H]3CC[C@]12C)C(C)C [Compound 4, β-sitosterol] |  | < 50 | IC50 against AChE [3]: 55 µg/mL (≈ 133 µM) |
| CCC=CCC=CCC=CCCCCCCCC(=O)O [Compound 3, 9,12,15-octadecatrienoic acid] |  | < 50 | AChE inhibitory activity (in words) [1]: weak inhibitory activity; also recorded: not active |
| CC[C@H](/C=C/[C@@H](C)[C@H]1CC[C@H]2[C@@H]3CC=C4C[C@@H](O)CC[C@]4(C)[C@H]3CC[C@]12C)C(C)C [Compound 5, stigmasterol] |  | < 50 | IC50 against AChE [3]: 63 µg/mL (≈ 153 µM) |
